Assay results: US11083725B2 (priority 2014, dated 2021)

Test system: NHBE cells
Assay: Biolog metabolic array: substrate use by NHBE cells with or without CA09 infection
Format: cell-based, human
Conditions: for Substrate use, 590 nm absorbance normalized to zero hour, 1 hr: Biolog PMM2, 1 hr; for Substrate use, 590 nm absorbance normalized to zero hour, 5 hr: Biolog PMM2, 5 hr; for Substrate use, 590 nm absorbance normalized to zero hour, 7 hr: Biolog PMM2, 7 hr
[1] = Control (uninfected) NHBE cells
[2] = Virus (CA09-infected, MOI 1) NHBE cells
[3] = Virus: CA09-infected NHBE cells, MOI 1, Biolog PMM2
[4] = Virus (CA09, MOI 1) infected NHBE cells

OC[C@H]1O[C@H](OC[C@H]2O[C@H](OC[C@H]3O[C@H](O[C@]4(CO)O[C@H](CO)[C@@H](O)[C@@H]4O)[C@H](O)[C@@H](O)[C@@H]3O)[C@H](O)[C@@H](O)[C@H]2O)[C@H](O)[C@@H](O)[C@H]1O [Stachyose]
590 nm absorbance normalized to zero hour (substrate use), 0 hr [1]: 1.00
590 nm absorbance normalized to zero hour (substrate use), 1 hr [1]: 8.51
590 nm absorbance normalized to zero hour (substrate use), 2 hr [1]: 8.20
590 nm absorbance normalized to zero hour (substrate use), 3 hr [1]: 7.94
590 nm absorbance normalized to zero hour (substrate use), 4 hr [1]: 8.00
590 nm absorbance normalized to zero hour (substrate use), 6 hr [1]: 3.45
590 nm absorbance normalized to zero hour (substrate use), 8 hr [1]: 3.67
590 nm absorbance normalized to zero hour (substrate use), 9 hr [1]: 3.90
590 nm absorbance normalized to zero hour (substrate use), 10 hr [1]: 9.13
590 nm absorbance normalized to zero hour (substrate use), 11 hr [1]: 4.47
Substrate use, 590 nm absorbance normalized to zero hour, 0 hr (Control (uninfected) NHBE cells, Biolog PMM2, 0 hr): 1.00
Substrate use, 590 nm absorbance normalized to zero hour, 1 hr [1]: 8.51
Substrate use, 590 nm absorbance normalized to zero hour, 5 hr [1]: 3.55
Substrate use, 590 nm absorbance normalized to zero hour, 7 hr [1]: 6.99
590 nm absorbance normalized to zero hour (substrate use), 0 hr [2]: 1.00
590 nm absorbance normalized to zero hour (substrate use), 1 hr [2]: 1.42
590 nm absorbance normalized to zero hour (substrate use), 2 hr [2]: 1.76
590 nm absorbance normalized to zero hour (substrate use), 3 hr [2]: 1.96
590 nm absorbance normalized to zero hour (substrate use), 4 hr [2]: 2.07
590 nm absorbance normalized to zero hour (substrate use), 5 hr [2]: 4.65
590 nm absorbance normalized to zero hour (substrate use), 6 hr [2]: 5.10
590 nm absorbance normalized to zero hour (substrate use), 7 hr [2]: 3.71
590 nm absorbance normalized to zero hour (substrate use), 8 hr [2]: 3.40
590 nm absorbance normalized to zero hour (substrate use), 9 hr [2]: 3.17
590 nm absorbance normalized to zero hour (substrate use), 10 hr [2]: 2.89
590 nm absorbance normalized to zero hour (substrate use), 11 hr [2]: 4.13
590 nm absorbance normalized to zero hour (substrate use), 0 hr [3]: 1.00
590 nm absorbance normalized to zero hour (substrate use), 1 hr [3]: 1.42
590 nm absorbance normalized to zero hour (substrate use), 2 hr [3]: 1.76
590 nm absorbance normalized to zero hour (substrate use), 3 hr [3]: 1.96
590 nm absorbance normalized to zero hour (substrate use), 4 hr [3]: 2.07
590 nm absorbance normalized to zero hour (substrate use), 5 hr [3]: 4.65
590 nm absorbance normalized to zero hour (substrate use), 6 hr [3]: 5.10
590 nm absorbance normalized to zero hour (substrate use), 7 hr [3]: 3.71
590 nm absorbance normalized to zero hour (substrate use), 8 hr [3]: 3.40
590 nm absorbance normalized to zero hour (substrate use), 9 hr [3]: 3.17
590 nm absorbance normalized to zero hour (substrate use), 10 hr [3]: 2.89
590 nm absorbance normalized to zero hour (substrate use), 11 hr [3]: 4.13

NC(=O)CCC(=O)O [Succinamic Acid]
590 nm absorbance normalized to zero hour (substrate use), 1 hr [1]: 1.11
590 nm absorbance normalized to zero hour (substrate use), 2 hr [1]: 0.37
590 nm absorbance normalized to zero hour (substrate use), 3 hr [1]: 0.42
590 nm absorbance normalized to zero hour (substrate use), 4 hr [1]: 0.42
590 nm absorbance normalized to zero hour (substrate use), 6 hr [1]: 0.44
590 nm absorbance normalized to zero hour (substrate use), 8 hr [1]: 0.51
590 nm absorbance normalized to zero hour (substrate use), 9 hr [1]: 0.54
590 nm absorbance normalized to zero hour (substrate use), 10 hr [1]: 0.56
590 nm absorbance normalized to zero hour (substrate use), 11 hr [1]: 0.61
Substrate use, 590 nm absorbance normalized to zero hour, 1 hr [1]: 1.11
Substrate use, 590 nm absorbance normalized to zero hour, 5 hr [1]: 0.45
Substrate use, 590 nm absorbance normalized to zero hour, 7 hr [1]: 0.50
Substrate use, 590 nm absorbance normalized to zero hour, 1 hr [4]: 1.45
Substrate use, 590 nm absorbance normalized to zero hour, 5 hr [4]: 2.03
Substrate use, 590 nm absorbance normalized to zero hour, 7 hr [4]: 2.22
590 nm absorbance normalized to zero hour (substrate use), 1 hr [2]: 1.45
590 nm absorbance normalized to zero hour (substrate use), 2 hr [2]: 1.65
590 nm absorbance normalized to zero hour (substrate use), 3 hr [2]: 1.88
590 nm absorbance normalized to zero hour (substrate use), 4 hr [2]: 1.85
590 nm absorbance normalized to zero hour (substrate use), 6 hr [2]: 2.14
590 nm absorbance normalized to zero hour (substrate use), 8 hr [2]: 2.30
590 nm absorbance normalized to zero hour (substrate use), 9 hr [2]: 2.41
590 nm absorbance normalized to zero hour (substrate use), 10 hr [2]: 2.37
590 nm absorbance normalized to zero hour (substrate use), 11 hr [2]: 2.51

O=C(O)CCC(=O)O [Succinic Acid]
590 nm absorbance normalized to zero hour (substrate use), 1 hr [1]: 1.02
590 nm absorbance normalized to zero hour (substrate use), 2 hr [1]: 1.06
590 nm absorbance normalized to zero hour (substrate use), 3 hr [1]: 1.08
590 nm absorbance normalized to zero hour (substrate use), 4 hr [1]: 1.06
590 nm absorbance normalized to zero hour (substrate use), 6 hr [1]: 0.39
590 nm absorbance normalized to zero hour (substrate use), 8 hr [1]: 0.96
590 nm absorbance normalized to zero hour (substrate use), 9 hr [1]: 0.94
590 nm absorbance normalized to zero hour (substrate use), 10 hr [1]: 0.87
590 nm absorbance normalized to zero hour (substrate use), 11 hr [1]: 0.81
Substrate use, 590 nm absorbance normalized to zero hour, 1 hr [1]: 1.02
Substrate use, 590 nm absorbance normalized to zero hour, 5 hr [1]: 1.04
Substrate use, 590 nm absorbance normalized to zero hour, 7 hr [1]: 1.00
590 nm absorbance normalized to zero hour (substrate use), 1 hr [2]: 1.69
590 nm absorbance normalized to zero hour (substrate use), 2 hr [2]: 2.01
590 nm absorbance normalized to zero hour (substrate use), 3 hr [2]: 2.37
590 nm absorbance normalized to zero hour (substrate use), 4 hr [2]: 2.37
590 nm absorbance normalized to zero hour (substrate use), 5 hr [2]: 2.54
590 nm absorbance normalized to zero hour (substrate use), 6 hr [2]: 2.73
590 nm absorbance normalized to zero hour (substrate use), 7 hr [2]: 2.78
590 nm absorbance normalized to zero hour (substrate use), 8 hr [2]: 2.85
590 nm absorbance normalized to zero hour (substrate use), 9 hr [2]: 3.06
590 nm absorbance normalized to zero hour (substrate use), 10 hr [2]: 2.98
590 nm absorbance normalized to zero hour (substrate use), 11 hr [2]: 3.12
590 nm absorbance normalized to zero hour (substrate use), 1 hr [3]: 1.69
590 nm absorbance normalized to zero hour (substrate use), 2 hr [3]: 2.01
590 nm absorbance normalized to zero hour (substrate use), 3 hr [3]: 2.37
590 nm absorbance normalized to zero hour (substrate use), 4 hr [3]: 2.37
590 nm absorbance normalized to zero hour (substrate use), 5 hr [3]: 2.54
590 nm absorbance normalized to zero hour (substrate use), 6 hr [3]: 2.73
590 nm absorbance normalized to zero hour (substrate use), 7 hr [3]: 2.78
590 nm absorbance normalized to zero hour (substrate use), 8 hr [3]: 2.85
590 nm absorbance normalized to zero hour (substrate use), 9 hr [3]: 3.06
590 nm absorbance normalized to zero hour (substrate use), 10 hr [3]: 2.98
590 nm absorbance normalized to zero hour (substrate use), 11 hr [3]: 3.12

O=C(CO)[C@@H](O)[C@@H](O)[C@H](O)CO [Tagatose]
590 nm absorbance normalized to zero hour (substrate use), 11 hr [2]: 0.48

Cc1cn([C@H]2C[C@H](O)[C@@H](CO)O2)c(=O)[nH]c1=O [Thymidine]
590 nm absorbance normalized to zero hour (substrate use), 1 hr [1]: 1.65
590 nm absorbance normalized to zero hour (substrate use), 2 hr [1]: 1.61
590 nm absorbance normalized to zero hour (substrate use), 3 hr [1]: 1.67
590 nm absorbance normalized to zero hour (substrate use), 4 hr [1]: 1.64
590 nm absorbance normalized to zero hour (substrate use), 6 hr [1]: 0.92
590 nm absorbance normalized to zero hour (substrate use), 8 hr [1]: 0.62
590 nm absorbance normalized to zero hour (substrate use), 9 hr [1]: 1.52
590 nm absorbance normalized to zero hour (substrate use), 10 hr [1]: 1.43
590 nm absorbance normalized to zero hour (substrate use), 11 hr [1]: 0.81
Substrate use, 590 nm absorbance normalized to zero hour, 1 hr [1]: 1.65
Substrate use, 590 nm absorbance normalized to zero hour, 5 hr [1]: 1.75
Substrate use, 590 nm absorbance normalized to zero hour, 7 hr [1]: 0.61
590 nm absorbance normalized to zero hour (substrate use), 1 hr [2]: 1.52
590 nm absorbance normalized to zero hour (substrate use), 2 hr [2]: 2.29
590 nm absorbance normalized to zero hour (substrate use), 3 hr [2]: 2.27
590 nm absorbance normalized to zero hour (substrate use), 4 hr [2]: 2.32
590 nm absorbance normalized to zero hour (substrate use), 5 hr [2]: 2.34
590 nm absorbance normalized to zero hour (substrate use), 6 hr [2]: 2.33
590 nm absorbance normalized to zero hour (substrate use), 7 hr [2]: 2.34
590 nm absorbance normalized to zero hour (substrate use), 8 hr [2]: 2.26
590 nm absorbance normalized to zero hour (substrate use), 9 hr [2]: 2.28
590 nm absorbance normalized to zero hour (substrate use), 10 hr [2]: 0.94
590 nm absorbance normalized to zero hour (substrate use), 11 hr [2]: 2.21
590 nm absorbance normalized to zero hour (substrate use), 1 hr [3]: 1.52
590 nm absorbance normalized to zero hour (substrate use), 2 hr [3]: 2.29
590 nm absorbance normalized to zero hour (substrate use), 3 hr [3]: 2.27
590 nm absorbance normalized to zero hour (substrate use), 4 hr [3]: 2.32
590 nm absorbance normalized to zero hour (substrate use), 5 hr [3]: 2.34
590 nm absorbance normalized to zero hour (substrate use), 6 hr [3]: 2.33
590 nm absorbance normalized to zero hour (substrate use), 7 hr [3]: 2.34
590 nm absorbance normalized to zero hour (substrate use), 8 hr [3]: 2.26
590 nm absorbance normalized to zero hour (substrate use), 9 hr [3]: 2.28
590 nm absorbance normalized to zero hour (substrate use), 10 hr [3]: 0.94
590 nm absorbance normalized to zero hour (substrate use), 11 hr [3]: 2.21
